Laboratory results taken from patent publication US20260232759A1, “PEPTIDES THAT INHIBIT INFECTION BY SARS-COV-2, THE VIRUS THAT CAUSES COVID-19 DISEASE” (Wisconsin Alumni Research Foundation, priority 2021, published 2026).
Like-named read-outs stand apart in the source and are kept apart here. Starred links: 1 amine or outer side, 2 acyl side, 3 side chain; linkers in the order of their positions; H or OH if unused. Non-standard residues stand in square brackets, D forms with d. Residues, ends and D or L forms follow the SMILES beside them. *: point of attachment. X2 = CC(C)CCC[C@@H](C)[C@H]1CC[C@H]2[C@@H]3CC=C4C[C@@H](OC(=O)CCOCCOCCOCCOCCNC(=O)C*)CC[C@]4(C)[C@H]3CC[C@]12C; X1 = O=C([C@H]1CNC[C@@H]1N[*:1])[*:2]; β3hE = N[C@@H](CCC(=O)O)CC(=O)O; β3hQ = NC(=O)CC[C@H](N)CC(=O)O; β3hD = NC(CC(=O)O)CC(=O)O

Experiments:
[1] = Solubility of the peptides; assay type: physicochemical
SARS-CoV-2 S = target: T1, SARS-CoV-2 S (Severe acute respiratory syndrome coronavirus 2, UniProt P0DTC2); assay: β-Gal complementation-based cell-cell fusion assay (S-protein-mediated fusion)
T1 construct: expressed in transfected cells

[2] = IC50, inhibition of S-mediated fusion

With `CC[C@H](C)[C@H](NC(=O)[C@H](C)NC(=O)[C@H](CCC(=O)O)NC(=O)[C@H](CCC(=O)O)NC(=O)[C@H](CC(C)C)NC(=O)[C@H](CCCCN)NC(=O)[C@H](CCCCN)NC(=O)[C@H](CCSC)NC(=O)[C@H](CCC(=O)O)NC(=O)[C@H](Cc1ccc(O)cc1)NC(=O)[C@H](CCC(=O)O)NC(=O)[C@H](CC(C)C)NC(=O)[C@H](CC(=O)O)NC(=O)[C@H](CC(C)C)NC(=O)[C@H](Cc1ccccc1)NC(=O)[C@@H](NC(=O)[C@@H](NC(=O)[C@H](CC(N)=O)NC(=O)[C@@H](NC(=O)[C@H](CCC(N)=O)NC(=O)[C@H](CC(=O)O)NC(=O)[C@H](CC(C)C)NC(=O)[C@@H](N)CO)[C@@H](C)CC)C(C)C)[C@@H](C)O)C(=O)N[C@@H](CCCCN)C(=O)N[C@@H](CCCCN)C(=O)N[C@@H](CC(C)C)C(=O)N[C@@H](CCC(=O)O)C(=O)N[C@@H](CCC(=O)O)C(=O)N[C@@H](CO)C(=O)N[C@@H](Cc1ccc(O)cc1)C(=O)N[C@H](C(=O)N[C@@H](CC(=O)O)C(=O)N[C@@H](CC(C)C)C(=O)N[C@@H](CCCCN)C(=O)N[C@@H](CCC(=O)O)C(=O)N[C@@H](CC(C)C)C(N)=O)[C@@H](C)CC` [EK1] the “solubility (in words)” value [1] was “improved solubility”.
For `CC[C@H](C)[C@H](NC(=O)[C@H](CCC(N)=O)NC(=O)[C@H](CO)NC(=O)[C@@H](NC(=O)[C@@H](N)CC(=O)O)[C@@H](C)CC)C(=O)N[C@@H](CC(N)=O)C(=O)N[C@@H](C)C(=O)N[C@@H](CO)C(=O)N[C@H](C(=O)N[C@H](C(=O)N[C@@H](CC(N)=O)C(=O)N[C@H](C(=O)N[C@@H](CCC(=O)O)C(=O)N[C@@H](Cc1ccc(O)cc1)C(=O)N[C@@H](CCC(=O)O)C(=O)N[C@H](C(=O)N[C@@H](CCCCN)C(=O)N[C@@H](CCCCN)C(=O)N[C@@H](CC(C)C)C(=O)N[C@@H](CCC(=O)O)C(=O)N[C@@H](CCC(=O)O)C(=O)N[C@H](C(=O)N[C@@H](C)C(=O)N[C@@H](CCCCN)C(=O)N[C@@H](CCCCN)C(=O)N[C@@H](CC(C)C)C(=O)N[C@@H](CCC(=O)O)C(=O)N[C@@H](CCC(=O)O)C(=O)N[C@@H](CO)C(=O)N[C@@H](CC(C)C)C(=O)N[C@H](C(=O)N[C@@H](CC(=O)O)C(=O)N[C@@H](CC(C)C)C(=O)N[C@@H](CCC(N)=O)C(=O)N[C@@H](CCC(=O)O)C(=O)N[C@@H](CC(C)C)C(N)=O)[C@@H](C)CC)C(C)C)[C@@H](C)CC)[C@@H](C)CC)C(C)C)C(C)C` [Peptide 1] (H-DISQINASVVNIEYEIKKLEEVAKKLEESLIDLQEL-NH2; N-terminus and C-terminus assumed), the “solubility (in words)” value [1] was “improved solubility”.
Work on “Ac-DISQINASVVNIEYEI[X1]KLE[β3hE]VA[X1]KLE[β3hE]SLIDLQELGSGSGC(X2)-NH2 [Bf APC/B3E]” yielded an IC50 (SARS-CoV-2 S; […], cell-cell fusion assay, peptides with poly(ethylene glycol)-cholesterol tail, read-out: IC50, inhibition of S-mediated fusion) of ~50 nM.
Work on “Ac-[β3hD]IS[β3hQ]INASVVNIEYEIKKLEEVAKKLEESLI[β3hD]LQ[β3hE]LGSGSGC(X2)-NH2 [D1 Q4 D32 E35]” yielded an IC50 (SARS-CoV-2 S; [2]) of ~50 nM.
Compound “Ac-[β3hD]IS[β3hQ]INASVVNIEYEIKKLEEVAKKLEESLI[β3hD]L[β3hQ]ELGSGSGC(X2)-NH2 [D1 Q4 D32 Q34]” has an IC50 (SARS-CoV-2 S; [2]) of ~10 nM.
